The values that follow come from ChEMBL document CHEMBL3991601, “The target landscape of clinical kinase drugs” (Science, 2017).

Assay [1] addresses T1, Mitogen-activated protein kinase kinase kinase kinase 3 (Homo sapiens, UniProt Q8IVH8).
T1 sequence (Q8IVH8 whole entry): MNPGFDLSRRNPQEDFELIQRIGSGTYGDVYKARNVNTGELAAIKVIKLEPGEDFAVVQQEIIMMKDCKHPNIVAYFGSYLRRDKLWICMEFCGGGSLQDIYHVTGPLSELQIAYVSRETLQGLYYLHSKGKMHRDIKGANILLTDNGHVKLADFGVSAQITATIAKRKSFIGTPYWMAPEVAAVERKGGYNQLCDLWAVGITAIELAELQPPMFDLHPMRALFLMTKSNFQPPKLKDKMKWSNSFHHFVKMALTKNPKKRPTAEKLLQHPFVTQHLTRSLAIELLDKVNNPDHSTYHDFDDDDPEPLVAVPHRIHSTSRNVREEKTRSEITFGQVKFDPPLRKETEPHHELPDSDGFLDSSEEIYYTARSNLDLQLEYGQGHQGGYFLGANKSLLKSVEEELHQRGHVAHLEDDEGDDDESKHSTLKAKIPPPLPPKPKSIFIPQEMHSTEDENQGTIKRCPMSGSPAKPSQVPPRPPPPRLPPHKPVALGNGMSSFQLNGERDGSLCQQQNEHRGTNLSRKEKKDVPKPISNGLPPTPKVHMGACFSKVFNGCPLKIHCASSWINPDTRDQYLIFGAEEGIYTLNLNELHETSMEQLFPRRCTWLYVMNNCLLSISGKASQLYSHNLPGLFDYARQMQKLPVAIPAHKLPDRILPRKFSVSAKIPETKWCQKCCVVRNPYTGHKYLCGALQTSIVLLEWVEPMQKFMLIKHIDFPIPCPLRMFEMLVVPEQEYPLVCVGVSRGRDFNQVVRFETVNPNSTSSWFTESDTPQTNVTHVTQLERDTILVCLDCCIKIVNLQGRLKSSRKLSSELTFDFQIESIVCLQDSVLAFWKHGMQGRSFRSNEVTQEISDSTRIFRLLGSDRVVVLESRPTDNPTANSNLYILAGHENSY

Assay [2] concerns the target T2, Membrane-associated tyrosine- and threonine-specific cdc2-inhibitory kinase (Homo sapiens, UniProt Q99640).
T2 sequence (Q99640 whole entry): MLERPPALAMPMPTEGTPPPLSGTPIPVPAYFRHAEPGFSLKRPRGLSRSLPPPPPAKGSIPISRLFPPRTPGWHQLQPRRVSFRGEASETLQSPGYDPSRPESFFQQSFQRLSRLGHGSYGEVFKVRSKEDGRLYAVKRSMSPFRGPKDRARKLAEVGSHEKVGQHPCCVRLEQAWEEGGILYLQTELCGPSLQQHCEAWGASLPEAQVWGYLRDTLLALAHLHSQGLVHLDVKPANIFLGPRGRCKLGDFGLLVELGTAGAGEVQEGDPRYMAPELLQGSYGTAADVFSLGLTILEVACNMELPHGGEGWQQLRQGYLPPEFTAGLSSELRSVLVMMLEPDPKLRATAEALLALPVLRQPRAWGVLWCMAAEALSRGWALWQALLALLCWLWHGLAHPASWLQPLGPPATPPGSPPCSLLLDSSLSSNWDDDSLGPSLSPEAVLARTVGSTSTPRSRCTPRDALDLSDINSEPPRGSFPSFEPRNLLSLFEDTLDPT

The target in assay [3] is T3, Beta-adrenergic receptor kinase 1 (Homo sapiens, UniProt P25098).
T3 sequence (P25098 whole entry): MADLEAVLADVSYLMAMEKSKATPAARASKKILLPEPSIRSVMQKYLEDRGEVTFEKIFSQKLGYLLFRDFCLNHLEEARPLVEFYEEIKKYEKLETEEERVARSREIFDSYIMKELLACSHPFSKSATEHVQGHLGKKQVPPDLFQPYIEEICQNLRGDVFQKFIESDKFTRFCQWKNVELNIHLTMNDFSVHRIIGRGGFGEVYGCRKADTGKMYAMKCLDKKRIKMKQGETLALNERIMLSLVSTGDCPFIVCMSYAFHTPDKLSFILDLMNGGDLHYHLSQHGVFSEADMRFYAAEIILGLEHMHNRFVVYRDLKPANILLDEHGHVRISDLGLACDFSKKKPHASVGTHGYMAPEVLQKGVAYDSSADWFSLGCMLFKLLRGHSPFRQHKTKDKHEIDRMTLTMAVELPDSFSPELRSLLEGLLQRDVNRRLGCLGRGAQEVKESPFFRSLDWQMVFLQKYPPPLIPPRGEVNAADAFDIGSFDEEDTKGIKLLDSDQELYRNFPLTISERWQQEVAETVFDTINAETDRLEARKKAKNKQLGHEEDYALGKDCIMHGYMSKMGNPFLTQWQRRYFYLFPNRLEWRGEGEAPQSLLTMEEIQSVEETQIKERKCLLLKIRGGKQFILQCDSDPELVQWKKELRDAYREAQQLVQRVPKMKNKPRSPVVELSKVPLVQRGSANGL

Assay [4] deals with Mitogen-activated protein kinase 7 (Homo sapiens, UniProt Q13164).
In assay [5] the target is cAMP-dependent protein kinase catalytic subunit gamma (Homo sapiens, UniProt P22612).
The target of assay [6] is Serine/threonine-protein kinase SIK3 (Homo sapiens, UniProt Q9Y2K2).
The target of assay [7] is Cyclin-dependent kinase 3 (Homo sapiens, UniProt Q00526).
The target in assay [8] is Cyclin-dependent kinase 4 (Homo sapiens, UniProt P11802).

Calls of active or inactive are those of the source. Bounds are passed on as bounds.

The term Kd denotes the constant that tells how readily two partners part at equilibrium.
Also: in the data inactive means no Kd found up to 30 µM.

Cyclin-dependent kinase 4, sequence (P11802 whole entry): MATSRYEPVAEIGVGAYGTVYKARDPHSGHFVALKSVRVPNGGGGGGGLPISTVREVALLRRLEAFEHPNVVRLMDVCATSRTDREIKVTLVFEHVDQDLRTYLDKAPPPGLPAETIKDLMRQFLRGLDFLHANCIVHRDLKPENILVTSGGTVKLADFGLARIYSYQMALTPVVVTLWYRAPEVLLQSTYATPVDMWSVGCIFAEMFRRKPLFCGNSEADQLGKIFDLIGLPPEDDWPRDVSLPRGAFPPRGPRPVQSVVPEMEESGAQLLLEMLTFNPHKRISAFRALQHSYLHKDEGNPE
Serine/threonine-protein kinase SIK3, sequence (Q9Y2K2 whole entry): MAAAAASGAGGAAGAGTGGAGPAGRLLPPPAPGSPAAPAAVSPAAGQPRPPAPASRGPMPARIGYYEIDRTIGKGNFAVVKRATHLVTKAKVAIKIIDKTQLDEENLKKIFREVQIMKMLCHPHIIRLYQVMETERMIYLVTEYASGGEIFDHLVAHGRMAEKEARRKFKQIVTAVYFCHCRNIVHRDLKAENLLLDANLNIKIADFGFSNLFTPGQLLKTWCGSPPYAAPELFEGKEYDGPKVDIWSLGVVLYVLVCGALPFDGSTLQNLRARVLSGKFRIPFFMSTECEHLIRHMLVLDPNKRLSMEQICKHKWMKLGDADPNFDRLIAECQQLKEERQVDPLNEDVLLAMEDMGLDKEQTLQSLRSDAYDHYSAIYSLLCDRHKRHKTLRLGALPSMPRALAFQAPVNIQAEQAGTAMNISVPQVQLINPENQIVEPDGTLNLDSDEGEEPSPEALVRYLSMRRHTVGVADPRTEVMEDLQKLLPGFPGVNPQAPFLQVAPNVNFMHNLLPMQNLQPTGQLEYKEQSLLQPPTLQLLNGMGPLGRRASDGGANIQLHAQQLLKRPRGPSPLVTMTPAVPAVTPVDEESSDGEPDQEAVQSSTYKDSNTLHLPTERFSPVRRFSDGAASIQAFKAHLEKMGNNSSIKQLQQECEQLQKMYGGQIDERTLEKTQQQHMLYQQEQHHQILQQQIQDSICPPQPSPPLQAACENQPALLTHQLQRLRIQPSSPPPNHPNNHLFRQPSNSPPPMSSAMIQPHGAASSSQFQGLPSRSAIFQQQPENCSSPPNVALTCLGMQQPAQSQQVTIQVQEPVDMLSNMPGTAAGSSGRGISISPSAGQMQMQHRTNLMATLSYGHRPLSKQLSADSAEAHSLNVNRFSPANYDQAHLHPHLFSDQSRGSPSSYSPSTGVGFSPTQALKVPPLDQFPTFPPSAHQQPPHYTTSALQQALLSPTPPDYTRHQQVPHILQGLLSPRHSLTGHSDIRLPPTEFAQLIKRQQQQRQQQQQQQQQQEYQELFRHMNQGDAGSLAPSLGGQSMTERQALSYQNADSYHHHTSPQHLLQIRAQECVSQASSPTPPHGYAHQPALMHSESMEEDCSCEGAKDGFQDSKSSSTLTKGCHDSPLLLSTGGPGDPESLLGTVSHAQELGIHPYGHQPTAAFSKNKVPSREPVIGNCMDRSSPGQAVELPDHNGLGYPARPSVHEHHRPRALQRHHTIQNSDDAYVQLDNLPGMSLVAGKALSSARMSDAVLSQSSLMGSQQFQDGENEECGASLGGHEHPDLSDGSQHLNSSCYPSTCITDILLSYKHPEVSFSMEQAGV
Mitogen-activated protein kinase 7, sequence (Q13164 whole entry): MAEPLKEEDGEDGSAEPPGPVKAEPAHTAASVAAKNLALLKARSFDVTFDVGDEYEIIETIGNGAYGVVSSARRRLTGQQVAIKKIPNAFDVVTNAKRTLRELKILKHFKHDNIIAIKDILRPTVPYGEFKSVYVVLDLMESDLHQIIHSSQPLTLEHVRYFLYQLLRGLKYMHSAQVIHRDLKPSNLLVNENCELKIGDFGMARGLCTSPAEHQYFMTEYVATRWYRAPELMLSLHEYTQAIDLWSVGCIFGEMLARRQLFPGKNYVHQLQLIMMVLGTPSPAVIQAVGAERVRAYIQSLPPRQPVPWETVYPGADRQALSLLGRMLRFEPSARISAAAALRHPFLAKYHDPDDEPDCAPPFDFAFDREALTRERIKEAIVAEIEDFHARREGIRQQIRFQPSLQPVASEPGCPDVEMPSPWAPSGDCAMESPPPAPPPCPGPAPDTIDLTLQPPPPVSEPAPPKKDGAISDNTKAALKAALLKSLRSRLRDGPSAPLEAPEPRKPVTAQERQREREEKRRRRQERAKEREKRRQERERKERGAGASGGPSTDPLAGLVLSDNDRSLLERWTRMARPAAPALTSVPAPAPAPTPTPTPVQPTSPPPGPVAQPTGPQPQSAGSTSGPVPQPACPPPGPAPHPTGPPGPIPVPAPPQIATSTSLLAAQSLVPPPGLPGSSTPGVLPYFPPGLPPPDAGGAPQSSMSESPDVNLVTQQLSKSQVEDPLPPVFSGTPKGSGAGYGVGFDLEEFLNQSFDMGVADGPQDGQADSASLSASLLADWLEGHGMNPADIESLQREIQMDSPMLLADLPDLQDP
Cyclin-dependent kinase 3, sequence (Q00526 whole entry): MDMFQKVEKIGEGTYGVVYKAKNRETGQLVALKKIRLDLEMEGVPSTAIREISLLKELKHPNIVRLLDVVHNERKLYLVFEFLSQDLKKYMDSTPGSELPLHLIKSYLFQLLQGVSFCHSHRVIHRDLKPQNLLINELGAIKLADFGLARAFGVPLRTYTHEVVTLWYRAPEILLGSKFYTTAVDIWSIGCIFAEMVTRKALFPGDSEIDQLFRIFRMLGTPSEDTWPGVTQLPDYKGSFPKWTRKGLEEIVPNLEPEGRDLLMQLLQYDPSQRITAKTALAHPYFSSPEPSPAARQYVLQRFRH
cAMP-dependent protein kinase catalytic subunit gamma, sequence (P22612 whole entry): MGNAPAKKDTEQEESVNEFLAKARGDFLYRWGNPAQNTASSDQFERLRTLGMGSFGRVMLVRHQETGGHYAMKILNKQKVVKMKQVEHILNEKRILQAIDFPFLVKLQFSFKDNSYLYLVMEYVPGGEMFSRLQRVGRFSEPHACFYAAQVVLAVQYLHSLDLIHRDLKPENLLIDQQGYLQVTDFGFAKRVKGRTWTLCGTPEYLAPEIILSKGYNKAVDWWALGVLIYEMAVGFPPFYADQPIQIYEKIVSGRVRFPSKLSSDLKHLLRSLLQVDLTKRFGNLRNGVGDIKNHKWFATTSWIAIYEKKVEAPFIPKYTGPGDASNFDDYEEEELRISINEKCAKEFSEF

Take `COc1cc(N2CCC(N3CCN(C)CC3)CC2)ccc1Nc1ncnc(Nc2ccccc2S(=O)(=O)C(C)C)n1` [ASP-3026]: the Kd in assay [1], in assay [2], in assay [3], in assay [4], in assay [5] and in assay [6] was > 30 µM (inactive) each time. The Kd in assay [7] and in assay [8] was > 30 µM (inactive) each time.

Consider `CN1CCC(CNc2ccc3ncc(-c4cccc(OC(F)(F)F)c4)n3n2)CC1` [SGI-1776], for which the Kd in assay [1], in assay [2], in assay [3], in assay [4], in assay [5] and in assay [6] was > 30 µM (inactive) throughout. Besides, the Kd in assay [7] and in assay [8] was > 30 µM (inactive) each time.

Turning to `CC(C)Nc1cc(-c2c[nH]c(C(=O)N[C@H](CO)c3cccc(Cl)c3)c2)c(Cl)cn1` [ULIXERTINIB], the Kd in assay [1], in assay [2], in assay [3], in assay [4], in assay [5] and in assay [6] was > 30 µM (inactive) throughout. Besides, the Kd in assay [7] and in assay [8] was > 30 µM (inactive) throughout.

As to `O=c1sn(-c2cccc3ccccc23)c(=O)n1Cc1ccccc1` [TIDEGLUSIB], the Kd in assay [1], in assay [2], in assay [3], in assay [4], in assay [5] and in assay [6] was > 30 µM (inactive) throughout. Also, the Kd in assay [7] and in assay [8] was > 30 µM (inactive) each time.

Turning to `CNC(=O)c1cc(Oc2ccc(NC(=O)Nc3ccc(Cl)c(C(F)(F)F)c3)c(F)c2)ccn1` [REGORAFENIB], the Kd in assay [1], in assay [2], in assay [3], in assay [4], in assay [5] and in assay [6] was > 30 µM (inactive) each time. In addition, the Kd in assay [7] and in assay [8] was > 30 µM (inactive) each time.

As for `Cc1ccc(-n2nc(C(C)(C)C)cc2NC(=O)NCc2cc(F)ccc2Oc2ccc3c(cnn3CCO)c2)cc1` [PEXMETINIB], the Kd in assay [1], in assay [2], in assay [3], in assay [4], in assay [5] and in assay [6] was > 30 µM (inactive) throughout. Also, the Kd in assay [7] and in assay [8] was > 30 µM (inactive) throughout.

Take `CCN1CCN(Cc2ccc(-c3cc4c(N[C@H](C)c5ccccc5)ncnc4[nH]3)cc2)CC1` [AEE-788]: the Kd in assay [1], in assay [2], in assay [3], in assay [4], in assay [5] and in assay [6] was > 30 µM (inactive) in each case. In addition, the Kd in assay [7] and in assay [8] was > 30 µM (inactive) in each case.

`Cc1ccc(NC(=O)c2ccc(CN3CC[C@H](N(C)C)C3)c(C(F)(F)F)c2)cc1Nc1nccc(-c2cncnc2)n1` [BAFETINIB]: the Kd in assay [1], in assay [2], in assay [3], in assay [4], in assay [5] and in assay [6] was > 30 µM (inactive) each time. Besides, the Kd in assay [7] and in assay [8] was > 30 µM (inactive) each time.

On to `Cn1cc(-c2ccc3nnc(C(F)(F)c4ccc5ncccc5c4)n3n2)cn1` [JNJ-38877605], for which the Kd in assay [1], in assay [2], in assay [3], in assay [4], in assay [5] and in assay [6] was > 30 µM (inactive) each time. Also, the Kd in assay [7] and in assay [8] was > 30 µM (inactive) each time.

Turning to `CC[C@H](Nc1ncnc2[nH]cnc12)c1nc2cccc(F)c2c(=O)n1-c1ccccc1` [IDELALISIB], the Kd in assay [1], in assay [2], in assay [3], in assay [4], in assay [5] and in assay [6] was > 30 µM (inactive) in each case. In addition, the Kd in assay [7] and in assay [8] was > 30 µM (inactive) throughout.

In the case of `CN1CC[C@@H](c2c(O)cc(O)c3c(=O)cc(-c4ccccc4Cl)oc23)[C@@H]1CO`, the Kd in assay [1], in assay [2], in assay [3], in assay [4], in assay [5] and in assay [6] was > 30 µM (inactive) in each case. Besides, the Kd in assay [7] and in assay [8] was > 30 µM (inactive) throughout.

`CN1N=C(N)c2cn([C@@H]3O[C@H](COP(=O)(O)O)[C@@H](O)[C@H]3O)c3ncnc1c23` [TRICIRIBINE PHOSPHATE]: the Kd in assay [1], in assay [2], in assay [3], in assay [4], in assay [5] and in assay [6] was > 30 µM (inactive) in each case. Besides, the Kd in assay [7] and in assay [8] was > 30 µM (inactive) in each case.

Take `Cc1cc(-c2cc(O)ccc2Cl)cc2nnc(Nc3ccc(OCCN4CCCC4)cc3)nc12`: the Kd was > 30 µM (inactive) in assay [1]; > 30 µM (inactive) in assay [2]; > 30 µM (inactive) in assay [3]; > 30 µM (inactive) in assay [4]; > 30 µM (inactive) in assay [5]; 0.003 µM (active) in assay [6]. The Kd in assay [7] and in assay [8] was > 30 µM (inactive) throughout.
